Measured values from US20240067693A1, “POLYPEPTIDES AND USES THEREOF” (MEDIMMUNE LIMITED, priority 2020, published 2024).
Numbered stars: 1 amine (or outer) side, 2 acyl side, 3 side chain; on linkers, the order of the positions; unused ones are H or OH. Bridge positions count the residues as written; N and C are the ends. Square brackets hold non-standard residues; d marks the D form. Side chains are listed from the residue outwards. Peptide text beside a SMILES is read from it. * marks the point of attachment. C18 diacid = O=C(O)CCCCCCCCCCCCCCCCC(=O)*; γGlu = O=C(O)[C@H](CCC(=O)[*:2])N[*:1]; αMeF = C[C@](N)(Cc1ccccc1)C(=O)O; Aib = CC(C)(N)C(=O)O

What was measured:
[1] = target: T1, human calcitonin receptor (hCTR) (Homo sapiens, UniProt P30988); experiment: cAMP production in 1321N1 cells with stable recombinant expression of human calcitonin receptor (hCTR); format: cell-based; conditions: cAMP, 1321N1 cells, assay buffer with 0.1% BSA; read-out: EC50 (pM) hCTR
T1 construct: expressed in transfected cells
T1 sequence (P30988 25-474): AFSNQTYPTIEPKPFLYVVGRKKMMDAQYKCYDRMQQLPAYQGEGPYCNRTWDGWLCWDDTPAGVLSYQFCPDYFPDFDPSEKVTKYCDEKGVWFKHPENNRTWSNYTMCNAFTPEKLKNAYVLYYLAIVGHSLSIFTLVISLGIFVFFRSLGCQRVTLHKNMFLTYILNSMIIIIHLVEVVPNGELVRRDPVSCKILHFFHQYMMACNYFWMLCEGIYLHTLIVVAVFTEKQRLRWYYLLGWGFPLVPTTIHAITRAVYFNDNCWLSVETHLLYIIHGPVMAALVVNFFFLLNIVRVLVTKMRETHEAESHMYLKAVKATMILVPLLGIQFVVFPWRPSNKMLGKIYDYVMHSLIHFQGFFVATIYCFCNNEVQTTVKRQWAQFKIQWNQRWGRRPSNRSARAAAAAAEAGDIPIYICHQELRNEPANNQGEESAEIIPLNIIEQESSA
How it was run: (§1)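 Receptor-expressing cells (human receptors in 1321N1, rat receptors in HEK) incubated 30 min at room temperature with peptide in HBSS/HEPES pH 7.4, 0.1% BSA, 0.5 mM IBMX. cAMP read by HTRF; EC50 from 4-parameter fit as % of maximal amylin or calcitonin response.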

[2] = target: T2, rat calcitonin receptor (rat CTR) (Rattus norvegicus, UniProt P32214); experiment: cAMP production in HEK cells with stable recombinant expression of rat calcitonin receptor (rat CTR); format: cell-based; conditions: assay buffer with 0.1% BSA
T2 construct: expressed in transfected cells
T2 sequence (P32214 25-516): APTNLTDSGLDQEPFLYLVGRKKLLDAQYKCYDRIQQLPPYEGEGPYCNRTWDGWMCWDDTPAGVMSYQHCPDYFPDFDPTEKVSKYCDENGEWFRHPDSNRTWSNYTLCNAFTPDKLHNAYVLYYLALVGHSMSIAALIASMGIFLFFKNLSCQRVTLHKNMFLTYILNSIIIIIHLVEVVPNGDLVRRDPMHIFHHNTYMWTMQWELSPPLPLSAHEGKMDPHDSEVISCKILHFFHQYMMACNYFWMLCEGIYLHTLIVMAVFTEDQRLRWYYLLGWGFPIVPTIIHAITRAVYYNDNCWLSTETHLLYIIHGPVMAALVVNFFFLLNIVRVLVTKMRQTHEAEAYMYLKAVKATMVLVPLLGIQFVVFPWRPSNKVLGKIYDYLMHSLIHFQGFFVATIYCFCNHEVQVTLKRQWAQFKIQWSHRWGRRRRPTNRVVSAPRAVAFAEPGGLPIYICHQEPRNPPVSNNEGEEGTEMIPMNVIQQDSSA
How it was run: as §1

[3] = Thioflavin T fibrillation assay; format: physicochemical; conditions: ThT fibrillation assay; peptide 1 mg/mL in 25 mM sodium acetate buffer pH 4.0; 6 days at 37 °C with shaking; >144 h = no increase
How it was run: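 Peptides at 1 mg/mL in 25 mM sodium acetate pH 4.0 with ThT (from 0.25 mM stock), incubated 6 days at 37 °C with intermittent orbital shaking at 500–750 rpm. Fluorescence (ex 444/em 480 nm) read every 30 min; value is average time to a rise in baseline-corrected signal.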

[4] = Pharmacokinetic determination via IV and SC administration in Sprague Dawley rats; conditions: male, rat, plasma, 20 nmol/kg

Structure (SMILES) | EC50 [1] | EC50 [2] | Time taken to detect increase in fluorescence intensity [3] | half-life ([4]; iv) | half-life ([4]; sc)
CC[C@H](C)[C@H](NC(=O)[C@@H]1CCCN1C(=O)CNC(=O)[C@](C)(Cc1ccccc1)NC(=O)[C@H](CC(N)=O)NC(=O)[C@H](CC(N)=O)NC(=O)[C@H](CO)NC(=O)[C@H](CO)NC(=O)[C@H](Cc1c[nH]cn1)NC(=O)[C@H](CCCNC(=N)N)NC(=O)[C@H](CC(C)C)NC(=O)[C@H](Cc1ccccc1)NC(=O)[C@H](CC(N)=O)NC(=O)[C@H](C)NC(=O)[C@H](CC(C)C)NC(=O)[C@H](CCCNC(=N)N)NC(=O)[C@H](CCC(N)=O)NC(=O)[C@@H](NC(=O)[C@H](C)NC(=O)[C@@H]1CSSC[C@H](NC(=O)[C@H](CCCCN)NC(=O)[C@@H](N)CCCCNC(=O)CC[C@H](NC(=O)CCCCCCCCCCCCCCCCC(=O)O)C(=O)O)C(=O)N[C@@H](CC(N)=O)C(=O)N[C@@H]([C@@H](C)O)C(=O)N[C@@H](C)C(=O)N[C@@H]([C@@H](C)O)C(=O)N1)[C@@H](C)O)C(=O)N[C@@H](CC(C)C)C(=O)N1CCC[C@H]1C(=O)N1CCC[C@H]1C(=O)N[C@H](C(=O)N[C@@H](CCC(=O)O)C(=O)N[C@H](C(=O)NCC(=O)N[C@@H](CO)C(=O)N[C@@H](CC(N)=O)C(=O)N[C@H](C(=O)N[C@@H](Cc1ccc(O)cc1)C(N)=O)[C@@H](C)O)C(C)C)[C@@H](C)O [Peptide 15, K(γE-C18diacid)K[CNTATC]ATQRLANFLRHSSNN(αMePhe)GPILPPTEVGSNTY-amide] (H-K([γGlu-C18 diacid])KCNTATCATQRLANFLRHSSNN[αMeF]GPILPPTEVGSNTY-NH2; disulfide 3-8; N-terminus assumed) | 5460 pM | 1820 pM | >144 h | 10.4 h | 11.5 h
CC[C@H](C)[C@H](NC(=O)[C@@H]1CCCN1C(=O)CNC(=O)[C@](C)(Cc1ccccc1)NC(=O)[C@H](CC(N)=O)NC(=O)[C@H](CC(N)=O)NC(=O)[C@H](CO)NC(=O)[C@H](CO)NC(=O)[C@H](Cc1c[nH]cn1)NC(=O)[C@H](CCCNC(=N)N)NC(=O)[C@H](CC(C)C)NC(=O)[C@H](Cc1ccccc1)NC(=O)[C@H](CC(N)=O)NC(=O)[C@H](C)NC(=O)[C@H](CC(C)C)NC(=O)[C@H](CCCNC(=N)N)NC(=O)[C@H](CCC(N)=O)NC(=O)[C@@H](NC(=O)[C@H](C)NC(=O)[C@@H]1CSSC[C@H](NC(=O)[C@@H](N)CCCCNC(=O)CC[C@H](NC(=O)CC[C@H](NC(=O)CCCCCCCCCCCCCCCCC(=O)O)C(=O)O)C(=O)O)C(=O)N[C@@H](CC(N)=O)C(=O)N[C@@H]([C@@H](C)O)C(=O)N[C@@H](C)C(=O)N[C@@H]([C@@H](C)O)C(=O)N1)[C@@H](C)O)C(=O)N[C@@H](CC(C)C)C(=O)N1CCC[C@H]1C(=O)N1CCC[C@H]1C(=O)N[C@H](C(=O)N[C@@H](CCC(=O)O)C(=O)N[C@H](C(=O)NCC(=O)N[C@@H](CO)C(=O)N[C@@H](CC(N)=O)C(=O)N[C@H](C(=O)N[C@@H](Cc1ccc(O)cc1)C(N)=O)[C@@H](C)O)C(C)C)[C@@H](C)O [Peptide 18, K(γE-γE-C18diacid)[CNTATC]ATQRLANFLRHSSNN(αMePhe)GPILPPTEVGSNTY-amide] (H-K([γGlu-γGlu-C18 diacid])CNTATCATQRLANFLRHSSNN[αMeF]GPILPPTEVGSNTY-NH2; disulfide 2-7; N-terminus assumed) | 4690 pM | 3090 pM | >144 h | 12 h | 13.6 h

The remaining lines, values ahead:

EC50 [1] | EC50 [2] | Time taken to detect increase in fluorescence intensity [3] | half-life ([4]; iv) | half-life ([4]; sc) | Structure (SMILES)
4590 pM | 1850 pM | >144 h | 10 h | 10.8 h | CC[C@H](C)[C@H](NC(=O)[C@@H]1CCCN1C(=O)CNC(=O)[C@](C)(Cc1ccccc1)NC(=O)[C@H](CC(N)=O)NC(=O)[C@H](CC(N)=O)NC(=O)[C@H](CO)NC(=O)[C@H](CO)NC(=O)[C@H](Cc1c[nH]cn1)NC(=O)[C@H](CCCNC(=N)N)NC(=O)[C@H](CC(C)C)NC(=O)[C@H](Cc1ccccc1)NC(=O)[C@H](CC(N)=O)NC(=O)[C@H](C)NC(=O)[C@H](CC(C)C)NC(=O)[C@H](CCCNC(=N)N)NC(=O)[C@H](CCC(N)=O)NC(=O)[C@@H](NC(=O)[C@H](C)NC(=O)[C@@H]1CSSC[C@H](NC(=O)[C@@H](N)CCCCNC(=O)CC[C@H](NC(=O)CC[C@H](NC(=O)CCCCCCCCCCCCCCCCC(=O)O)C(=O)O)C(=O)O)C(=O)N[C@@H](CC(N)=O)C(=O)N[C@@H]([C@@H](C)O)C(=O)N[C@@H](C)C(=O)N[C@@H]([C@@H](C)O)C(=O)N1)[C@@H](C)O)C(=O)N[C@@H](CC(C)C)C(=O)N1CCC[C@H]1C(=O)N1CCC[C@H]1C(=O)N[C@H](C(=O)N[C@@H](CC(N)=O)C(=O)N[C@H](C(=O)NCC(=O)N[C@@H](CO)C(=O)N[C@@H](CC(N)=O)C(=O)N[C@H](C(=O)N[C@@H](Cc1ccc(O)cc1)C(N)=O)[C@@H](C)O)C(C)C)[C@@H](C)O [Peptide 20, K(γE-γE-C18diacid)[CNTATC]ATQRLANFLRHSSNN(αMePhe)GPILPPTNVGSNTY-amide] (H-K([γGlu-γGlu-C18 diacid])CNTATCATQRLANFLRHSSNN[αMeF]GPILPPTNVGSNTY-NH2; disulfide 2-7; N-terminus assumed)
6260 pM | 2240 pM | >144 h | 8.9 h | 11 h | CC[C@H](C)[C@H](NC(=O)[C@@H]1CCCN1C(=O)CNC(=O)[C@H](Cc1ccccc1)NC(=O)[C@H](CC(N)=O)NC(=O)C(C)(C)NC(=O)[C@H](CO)NC(=O)[C@H](CO)NC(=O)[C@H](Cc1c[nH]cn1)NC(=O)[C@H](CCCNC(=N)N)NC(=O)[C@H](CC(C)C)NC(=O)[C@H](Cc1ccccc1)NC(=O)[C@H](CC(N)=O)NC(=O)[C@H](C)NC(=O)[C@H](CC(C)C)NC(=O)[C@H](CCCNC(=N)N)NC(=O)[C@H](CCC(N)=O)NC(=O)[C@@H](NC(=O)[C@H](C)NC(=O)[C@@H]1CSSC[C@H](NC(=O)[C@@H](N)CCCCNC(=O)CC[C@H](NC(=O)CCCCCCCCCCCCCCCCC(=O)O)C(=O)O)C(=O)N[C@@H](CC(N)=O)C(=O)N[C@@H]([C@@H](C)O)C(=O)N[C@@H](C)C(=O)N[C@@H]([C@@H](C)O)C(=O)N1)[C@@H](C)O)C(=O)N[C@@H](CC(C)C)C(=O)N1CCC[C@H]1C(=O)N1CCC[C@H]1C(=O)N[C@H](C(=O)N[C@@H](CCC(=O)O)C(=O)N[C@H](C(=O)NCC(=O)N[C@@H](CO)C(=O)N[C@@H](CC(N)=O)C(=O)N[C@H](C(=O)N[C@@H](Cc1ccc(O)cc1)C(N)=O)[C@@H](C)O)C(C)C)[C@@H](C)O [Peptide 44, K(γE-C18diacid)[CNTATC]ATQRLANFLRHSS(Aib)NFGPILPPTEVGSNTY-amide] (H-K([γGlu-C18 diacid])CNTATCATQRLANFLRHSS[Aib]NFGPILPPTEVGSNTY-NH2; disulfide 2-7; N-terminus assumed)
5270 pM | 2430 pM | >144 h | 5.6 h | 8.1 h | CC[C@H](C)[C@H](NC(=O)[C@@H]1CCCN1C(=O)CNC(=O)[C@H](Cc1ccccc1)NC(=O)[C@H](CC(N)=O)NC(=O)C(C)(C)NC(=O)[C@H](CO)NC(=O)[C@H](CO)NC(=O)[C@H](Cc1c[nH]cn1)NC(=O)[C@H](CCCNC(=N)N)NC(=O)[C@H](CC(C)C)NC(=O)[C@H](Cc1ccccc1)NC(=O)[C@H](CC(N)=O)NC(=O)[C@H](C)NC(=O)[C@H](CC(C)C)NC(=O)[C@H](CCCNC(=N)N)NC(=O)[C@H](CCC(N)=O)NC(=O)[C@@H](NC(=O)[C@H](C)NC(=O)[C@@H]1CSSC[C@H](NC(=O)[C@@H](N)CCCCNC(=O)CC[C@H](NC(=O)CCCCCCCCCCCCCCCCC(=O)O)C(=O)O)C(=O)N[C@@H](CC(N)=O)C(=O)N[C@@H]([C@@H](C)O)C(=O)N[C@@H](C)C(=O)N[C@@H]([C@@H](C)O)C(=O)N1)[C@@H](C)O)C(=O)N[C@@H](CC(C)C)C(=O)N1CCC[C@H]1C(=O)N1CCC[C@H]1C(=O)N[C@H](C(=O)N[C@@H](CC(N)=O)C(=O)N[C@H](C(=O)NCC(=O)N[C@@H](CO)C(=O)N[C@@H](CC(N)=O)C(=O)N[C@H](C(=O)N[C@@H](Cc1ccc(O)cc1)C(N)=O)[C@@H](C)O)C(C)C)[C@@H](C)O [Peptide 48, K(γE-C18diacid)[CNTATC]ATQRLANFLRHSS(Aib)NFGPILPPTNVGSNTY-amide] (H-K([γGlu-C18 diacid])CNTATCATQRLANFLRHSS[Aib]NFGPILPPTNVGSNTY-NH2; disulfide 2-7; N-terminus assumed)
